Test system: IL-6 production induced by lipopolysaccharide (LPS) in human corneal epithelial cells
Assay: Evaluation test for GR agonist activity: inhibition of LPS-induced IL-6 production in human corneal epithelial cells (HCE-T)
Format: cell-based
Conditions: Corneal epithelial cell, 10 μL of 100 μM test compound solution per well, 4 hours incubation, efficacy relative to DEX
Protocol: In order to evaluate a GR agonist activity of the present compound, the inhibitory effects on the IL-6 production induced by lipopolysaccharide (LPS) in human corneal epithelial cells. IL-6 levels in the conditioned medium were measured using the HTRF human IL-6 Kit (boehringer-Ingelheim, Cat No. 62IL6PEB), and the procedure was carried out according to the protocol attached to the kit. Hereinafter, the specific method will be described.
LPS solution: After LPS was dissolved in phosphate buffer solution (hereinafter referred to as PBS(−)), the resulting solution was diluted with 10% FBS-DMEM/F12 medium, whereby a 1 μg/mL LPS solution was prepared.
After a test compound was dissolved in dimethylsulfoxide (hereinafter referred to as DMSO), the resulting solution was diluted with 10% FBS-DMEM/F12 medium, whereby a 100 μM test compound solution was prepared. A 100 μM DEX solution was prepared by the same method, and the inhibitory ratio of IL-6 production of DEX was evaluated to use for calculating efficacy (% DEX).
Used cell: SV40-immortalized human corneal epithelial cells (HCE-T) (RIKEN)
1) HCE-T cells were harvested, and seeded at 2.0×10^4 cells/0.1 mL/well in a 96-well plate.
2) After incubation overnight, the medium was removed and a 80 μL of new 10% FBS-DMEM/Ham's F12 medium was added into each well.
3) A 10 μL of test compounds solution was added into each well.
4) A 10 μL of LPS solution was added into each well.
5) As a negative control, a 10 μL of 10% FBS-DMEM/Ham's F12 medium was added into each well instead of a test compound solution and a LPS solution.
6) As a positive control, a 10 μL of 10% FBS-DMEM/Ham's F12 medium containing 1% DMSO was added into each well instead of a test compound solution.
7) After 4 hours incubation, supernatants were collected and IL-6 levels in the supernatants were quantitated using the HTRF human IL-6 Kit.
8) The inhibition ratio of IL-6 production (%) was calculated according to the following equation.
The inhibition ratio of IL-6 production (%) was calculated according to the following equation. The inhibition ratio of IL-6 production(%)=100×[1−(IL-6 level in each group−mean value of IL-6 level in negative control)/(mean value of IL-6 level in positive control−mean value of IL-6 level in negative control)](%)
Furthermore, the inhibition ratio of IL-6 production (efficacy (% DEX)) was also calculated according to the following equation. Efficacy(% DEX)=100×{(mean value of IL-6 inhibition in compound-treated group)/(mean value of IL-6 inhibition in DEX-treated group)}(%) (Result and Discussion)

| Compound | Emax [%] |
| --- | --- |
| CCCS(=O)(=O)Oc1ccc(-c2ccc3c(c2COc2cc(F)ccc2C)C(C)=CC(C)(C)N3)c(OC)c1 [Compound 4-3, 5-(5-Fluoro-2-methylphenoxymethyl)-6-(2-methoxy-4-propylsulfonyloxyphenyl)-2,2,4-trimethyl-1,2-dihydroquinoline] | 81 |
| COc1cc(OC(=O)c2cccnc2C)ccc1-c1ccc2c(c1COC(=O)c1ccc(C)s1)C(C)=CC(C)(C)N2 [Compound 1-153, 6-[2-Methoxy-4-(2-methylpyridin-3-ylcarbonyloxy)phenyl]-5-(5-methylthiophen-2-ylcarbonyloxymethyl)-2,2,4-trimethyl-1,2-dihydroquinoline] | 89 |
| COc1cc(OC(=O)c2ccncc2)ccc1-c1ccc2c(c1COC(=O)c1ccc(C)s1)C(C)=CC(C)(C)N2 [Compound 1-156, 6-[2-Methoxy-4-(pyridin-4-ylcarbonyloxy)phenyl]-5-(5-methylthiophen-2-ylcarbonyloxymethyl)-2,2,4-trimethyl-1,2-dihydroquinoline] | 90 |
| COc1cc(OC(=O)c2ccc(F)cc2)ccc1-c1ccc2c(c1COC(=O)c1ccc(C)s1)C(C)=CC(C)(C)N2 [Compound 1-169, 6-[4-(4-Fluorobenzoyloxy)-2-methoxyphenyl]-5-(5-methylthiophen-2-ylcarbonyloxymethyl)-2,2,4-trimethyl-1,2-dihydroquinoline] | 78 |
| COc1cc(OC(=O)c2ccccc2[N+](=O)[O-])ccc1-c1ccc2c(c1COC(=O)c1ccc(C)s1)C(C)=CC(C)(C)N2 [Compound 1-170, 6-[2-Methoxy-4-(2-nitrobenzoyloxy)phenyl]-5-(5-methylthiophen-2-ylcarbonyloxymethyl)-2,2,4-trimethyl-1,2-dihydroquinoline] | 77 |
| COc1ccccc1NCc1c(-c2ccc(OC(=O)c3cccnc3OC)cc2OC)ccc2c1C(C)=CC(C)(C)N2 [Compound 1-117, 6-[2-Methoxy-4-(2-methoxypyridin-3-ylcarbonyloxy)phenyl]-5-(2-methoxyphenylaminomethyl)-2,2,4-trimethyl-1,2-dihydroquinoline] | 95 |
| COc1cc(OS(=O)(=O)C2CCCC2)ccc1-c1ccc2c(c1COC(=O)c1ccc(C)s1)C(C)=CC(C)(C)N2 [Compound 4-30, 6-(4-Cyclopentylsulfonyloxy-2-methoxyphenyl)-5-(5-methylthiophen-2-ylcarbonyloxymethyl)-2,2,4-trimethyl-1,2-dihydroquinoline] | 93 |
| COc1cc(OC(=O)c2cccnc2)ccc1-c1ccc2c(c1COC(=O)c1ccc(Br)s1)C(C)=CC(C)(C)N2 [Compound 1-160, 5-(5-Bromothiophen-2-ylcarbonyloxymethyl)-6-[2-methoxy-4-(pyridin-3-ylcarbonyloxy)phenyl]-2,2,4-trimethyl-1,2-dihydroquinoline] | 88 |
| COc1cc(OC(=O)c2cscn2)ccc1-c1ccc2c(c1COc1cc(F)ccc1C)C(C)=CC(C)(C)N2 [Compound 1-40, 5-(5-Fluoro-2-methylphenoxymethyl)-6-[2-methoxy-4-(thiazol-4-ylcarbonyloxy)phenyl]-2,2,4-trimethyl-1,2-dihydroquinoline] | 75 |
| COc1ccccc1NCc1c(-c2ccc(OS(C)(=O)=O)cc2OC)ccc2c1C(C)=CC(C)(C)N2 [Compound 4-20, 6-(2-Methoxy-4-methylsulfonyloxyphenyl)-5-(2-methoxyphenylaminomethyl)-2,2,4-trimethyl-1,2-dihydroquinoline] | 75 |
| COc1cc(OS(=O)(=O)CCC(F)(F)F)ccc1-c1ccc2c(c1COC(=O)c1ccc(C)s1)C(C)=CC(C)(C)N2 [Compound 4-26, 6-[2-Methoxy-4-(3,3,3-trifluoropropylsulfonyl-oxy)phenyl]-5-(5-methylthiophen-2-yl-carbonyloxymethyl)-2,2,4-trimethyl-1,2-dihydroquinoline] | 77 |
| CCCS(=O)(=O)Oc1ccc(-c2ccc3c(c2COC(=O)c2ccc(C)s2)C(C)=CC(C)(C)N3)c(OC)c1 [Compound 4-27, 6-(2-Methoxy-4-propylsulfonyloxyphenyl)-5-(5-methylthiophen-2-ylcarbonyloxymethyl)-2,2,4-trimethyl-1,2-dihydroquinoline] | 101 |

— patent US8426406B2, “Glucocorticoid receptor agonist comprising 2,2,4-trimethyl-6-phenyl-1,2-dihydroquinoline derivatives having substituted oxy group” (Santen Pharmaceutical Co., Ltd., priority 2008, dated 2013)
